Results published in US20250313648A1, “Binders of Chondroitin Sulfate Proteoglycan (CSPG4) Polypeptides” (Regents of the University of Minnesota, priority 2021, published 2025).

Legend:
[1] = test system: ZEB1 expression in HEY cells; test: Western blot for pFAK, FAK and ZEB1 after FAK inhibitor treatment; type: cell-based, human; settings: normal growth medium, 24 hours, vs DMSO
Procedure: FIGS. 9A-9J. CSPG4 expression is associated with epithelial-to-mesenchymal plasticity, mediated by CSPG4 associated changes in ZEB1 expression. FIG. 9A) The indicated cell lines both Mock(M) and CRISPR(C) were cultured separately in spheroid formation assays for 7 days, collected and analyzed by western blot for various EMT markers. FIG. 9B) Western blot for Zebl and CSPG4 expression in EOC cell lines treated with siRNA for ZEB1 or control for 48 hours. FIG. 9C) Western blot for pFAK, FAK and ZEB1 in HEY cells treated with either DMSO (control) or FAK inhibitor PND-1186 at the indicated concentrations in normal growth medium for 24 hours. FIG. 9D) Spheroid formation in methylcellulose of EOC cell lines treated with siRNA to ZEB1 or control for 7 days. Bars represent spheroid counts from five random fields/well from triplicate wells+/−S.D. *p<0.02 by students t-test with Welch's correction. n=3 from 3 individual experiments. FIG. 9E) Invasion assay of EOC cells treated with ZEB1 siRNA or control siRNA (methods). *p<0.002 by student's t-test with Welch's correction. n=3 from 3 individual experiments. FIGS. 9F and 9G) Cells were transfected with control or ZEB1 siRNA overnight and plated in the cisplatin cytotoxicity assay the following day. MTS data was collected after 4 days of cisplatin treatment. […]

[2] = test system: ES-2, HEY, A2780 mock and CSPG4 knockout cells; test: Cisplatin cytotoxicity assay (MTS); type: cell-based, human; settings: CSPG4 knockout vs mock, three cell lines (A2780, HEY, ES-2), 96 hours of treatment
Description: FIGS. 5A-5G. CSPG4 knockout results in significant loss of invasive capacity and cisplatin resistance in multiple ovarian tumor cell lines. Invasion assays using control (Mock) and CSPG4 knockout (CRISPR) HEY cells (FIG. 5A) or A2780 cells (FIG. 5B). Bars represent the total number of invading cells from five random fields/well from triplicate wells, +/−S.D., from three replicate experiments, n=6. P values determined by student's t-test with Welch's correction. […] Lanes: 1—ES-2 Parent, 2—ES-2 Mock, 3—ES-2 CSPG4 knockout, 4—ES-2 CSPG4 Rescue. […] Invasive capacity is rescued in the ES-2 CRISPR knockout line with CSPG4 re-expression (Rescue). P values determined by student's t-test with Welch's correction. FIGS. 5E-G show the cell viability of mock and knockout (CRISPR) A2780 cells (FIG. 5E), mock and knockout HEY cells (FIG. 5F), and mock, knockout and rescue ES-2 cells (FIG. 5G) treated with increasing concentrations of cisplatin. Dose response curves were plotted as the percent of MTS staining vs. untreated cells for each cell line +/−s.e.m. from three replicate experiments (n=9). The phenotype was rescued by re-expression of CSPG4 in the ES-2 CRISPR cells (ES-2 Rescue, in FIG. 5G).
Cisplatin cytotoxicityAssay: Cisplatin stock (3.3 mM) was diluted with growth medium to the required concentrations before each experiment. […] Absorbance at 570 nm was collected on a Tecan 200 plate reader. […]

Row | Structure (SMILES) | ZEB1 expression [1] | reduction in the IC50 for the knockout cell lines [2]
1 | CNC(=O)c1ccccc1Nc1cc(Nc2ccc(N3CCOCC3)cc2OC)ncc1C(F)(F)F [PND-1186] | inhibited | –
2 | N.N.[Cl][Pt][Cl] [cisplatin, Cisplatin] | – | 3.6-to-8.8 fold
